Source: patent publication US20250255889A1, “METHODS FOR TREATMENT SELECTION FOR CHRONIC LYMPHOCYTIC LEUKEMIA (CLL)” (The Broad Institute, Inc., priority 2022, published 2025)
One block for each compound: values may come before it.

Legend:
[1] = tested on: primary CLL samples (CD19+ and CD5+ cells); experiment: High-throughput dynamic BH3 profiling (HT-DBP): drug-induced apoptotic priming (delta priming), cytochrome c release after BH3 peptide; format: cell-based, human; details: for priming in CLL groups: CLL sample groups compared with normal PBMCs; for drug-induced apoptotic priming: across CLL subtypes, 65 primary CLL samples, 20 hours drug
Method in brief: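 Primary CLL cells (CD19+/CD5+) are treated with the agent or DMSO carrier, then briefly exposed to a fixed concentration of a promiscuous BH3 peptide such as BIM. Mitochondrial cytochrome c release serves as the priming surrogate. Delta priming is drug-treated priming minus DMSO-treated priming, run in high-throughput format.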

[2] = tested on: healthy PBMCs (normal cell types CD14, CD19, CD3); experiment: HT-DBP delta priming in healthy donor normal cells; format: cell-based, human; details: normal peripheral blood mononuclear cells
Description: FIG. 17 provides a heatmap showing median delta priming across healthy donors for the indicated normal cell types (CD14, CD19, and CD3).
The assay was robust, as indicated by an 0.92 median Pearson correlation across replicates (FIGS. 5A, 5B, 6A, and 6B). Additionally, the majority of drugs had greater effect on CLL samples than on healthy PBMCs (p<0.001, paired t-test), supporting their specificity (FIGS. 7A-7C).
Delta-priming was measured for the molecular features listed along the top of FIGS. 14, 17, and 32 using the HT-DBP screen. The molecular features included IGHV subtypes, epitypes, expression subtypes (i.e., expression clusters), mutations in driver genes, and recurrent copy-number events. A feature was included in the heatmap of FIG. 14 only if at least 2 patients in a DBP screen had the feature. Median delta-priming was computed across all BH3 peptides and across all patients within the feature. […] Plots showing molecular features for groups of 65 and 81 patients were also compiled (see FIGS. 19, 20).

[3] = peptide BAD 0.3 uM, feature EC-m3
[4] = peptide MS1 2.5 uM, feature gain_16p11.2
[5] = peptide PUMA 1 uM, feature EC-m2
[6] = peptide PUMA 1 uM, feature loss_6q21

priming response in normal cell groups [2]: minimal priming response
SMILES: CC1(C)CCC(c2ccc(Cl)cc2)=C(CN2CCN(c3ccc(C(=O)NS(=O)(=O)c4ccc(N[C@H](CCN5CCOCC5)CSc5ccccc5)c(S(=O)(=O)C(F)(F)F)c4)cc3)CC2)C1 [Navitoclax, navitoclax]
priming in CLL groups [1]: potentially therapeutically relevant priming
drug-induced apoptotic priming by expression cluster ([1]; EC-i): more sensitive to navitoclax than any other drug
drug-induced apoptotic priming by expression cluster ([1]; EC-u2 (U-CLL)): most sensitive
direction ([1]; Feature EC-m2): Resistant
direction ([1]; Feature M-CLL): Sensitive
direction ([1]; Feature U-CLL): Resistant
direction ([1]; Feature n-CLL): Resistant
drug-induced apoptotic priming [1]: high priming
direction [1, 3]: Sensitive
direction ([1]; peptide BAD 0.3 uM, feature EC-u1): Resistant
direction ([1]; peptide BAD 0.3 uM, feature M-CLL): Sensitive
direction ([1]; peptide BAD 0.3 uM, feature U-CLL): Resistant
direction ([1]; peptide BAD 0.3 uM, feature loss_3p21.31): Sensitive
direction ([1]; peptide BAD 0.3 uM, feature loss_5p15.33): Sensitive
direction ([1]; peptide BAD 0.3 uM, feature loss_7q36.1): Sensitive
direction ([1]; peptide BAD 0.3 uM, feature loss_8p): Sensitive
direction ([1]; peptide BAD 0.3 uM, feature loss_12p13.31a): Sensitive
direction ([1]; peptide BAD 0.3 uM, feature loss_14q32.12): Sensitive
direction ([1]; peptide BAD 0.3 uM, feature loss_17p13.3): Sensitive
direction ([1]; peptide BAD 0.3 uM, feature n-CLL): Resistant
direction ([1]; peptide BIM 0.01 uM, feature loss_3p21.31): Sensitive
direction ([1]; peptide BIM 0.01 uM, feature loss_7q36.1): Sensitive
direction ([1]; peptide BIM 0.01 uM, feature loss_8p): Sensitive
direction ([1]; peptide BIM 0.01 uM, feature loss_14q32.12): Sensitive
direction ([1]; peptide MS1 2.5 uM, feature MYD88): Sensitive
direction [1, 4]: Sensitive
direction ([1]; peptide MS1 2.5 uM, feature loss_3p21.31): Sensitive
direction ([1]; peptide MS1 2.5 uM, feature loss_7q36.1): Sensitive
direction ([1]; peptide MS1 2.5 uM, feature loss_8p): Sensitive
direction ([1]; peptide MS1 2.5 uM, feature loss_14q32.12): Sensitive
direction [1, 5]: Resistant
direction ([1]; peptide PUMA 1 uM, feature EC-m4): Sensitive
direction [1, 6]: Resistant
direction ([1]; peptide PUMA 1 uM, feature loss_14q32.12): Sensitive

priming response in normal cell groups [2]: minimal priming response
SMILES: CC1(C)CCC(CN2CCN(c3ccc(C(=O)NS(=O)(=O)c4ccc(NCC5CCOCC5)c([N+](=O)[O-])c4)c(Oc4cnc5[nH]ccc5c4)c3)CC2)=C(c2ccc(Cl)cc2)C1 [Venetoclax, venetoclax]
priming in CLL groups [1]: potentially therapeutically relevant priming
drug-induced apoptotic priming by expression cluster ([1]; EC-m2, within M-CLL ECs): least effective
drug-induced apoptotic priming by expression cluster ([1]; EC-m3, within M-CLL ECs): most effective
direction ([1]; Feature EC-m2): Resistant
direction ([1]; Feature loss_13q14.3): Sensitive
drug-induced apoptotic priming [1]: highly effective
positive delta priming values (rank among drugs) ([1]; across all evaluated BH3 peptides, 42 drugs): top-ten drugs with the highest positive delta priming values
delta priming value of combined treatment ([1]; combined with MS1 peptide (MCL1 inhibitor), relative to alternative treatments): increased delta priming value
direction [1, 3]: Sensitive
direction ([1]; peptide BAD 0.3 uM, feature loss_13q14.3): Sensitive
direction ([1]; peptide BIM 0.01 uM, feature SAMHD1): Sensitive
direction ([1]; peptide MS1 2.5 uM, feature POT1): Sensitive
direction [1, 4]: Sensitive
direction ([1]; peptide MS1 2.5 uM, feature loss_13q14.13): Sensitive
direction [1, 5]: Resistant
direction [1, 6]: Resistant
